Test results from paper PMC3256212, “Mechanism and Function of Drosophila capa GPCR: A Desiccation Stress-Responsive Receptor with Functional Homology to Human NeuromedinU Receptor” (PLoS ONE, 2012).
Peptide text beside a SMILES is read from it.

Molecular target: T1, NMU receptor 2 (NMUR 2) (Homo sapiens, UniProt Q9GZQ4)
T1 construct: expressed in transfected cells; host or cells: Drosophila S2 cells (pMT/V5-His TOPO)
Experiment: [Ca2+]i (aequorin) in NMUR 2-transfected S2 cells
Format: cell-based
Settings: NMUR 2- and apoaequorin-co-transfected S2 cells; N = 3 (Fig. 3D); read-out: EC50, [Ca2+]i via NMUR 2
Protocol: The capa peptides Drm-capa-1 (GANMGLYAFPRVamide), Drm-capa-2 (ASGLVAFPRVamide), Drm-PK-1 (TGPSASSGLWFGPRLamide), Drm-PK-2 (SVPFKPRLamide) and hugin gamma (hugg, pQLQSNGEPAYRVRTPRL-amide) were synthesised as C-terminally amidated peptides (Biomatik Corporation, Canada). Peptides were dissolved in distilled ACN/H2O to a concentration of 1 mM and then diluted to the required working concentration in Schneider's medium (Invitrogen Inc.). Human neuromedin U-25 was purchased from Sigma. Rabbit polyclonal antibody to porcine neuromedinU-8 was purchased from Progen biotechnik (Heidelberg, Germany). Rabbit capa precursor peptide used was described in [21] Rabbit anti-peptide antibody was raised against the capaR epitope (CQQGTNNRETRNSQM) by Genosphere Biotechnologies (Paris, France) and purified on a HiTrap NHS-activated HP column (Amersham Pharmacia Bio-tech; Buckinghamshire, UK) according to the manufacturer's instructions. Immunohistochemistry was carried out as described previously. Mouse anti-GFP primary antibody (Zymed) and the antiserum to neuromedinU-8 were all diluted 1∶1000 or, in the case of the pre-immune serum, the affinity-purified capaR antibody and the antiserum to the capa precursor peptide, 1∶500. Incubations in the primary antibodies were performed overnight. A FITC-conjugated affinity-purified goat anti-mouse antibody (Jackson Immunologicals) was used in a dilution of 1∶1,000 for visualization of the mouse monoclonal anti-GFP. A Texas red-conjugated affinity-purified goat anti-rabbit antibody (Jackson Immunologicals) was used at a dilution of 1∶1,000 for visualization of the rabbit capaR antiserum.
Drosophila S2 cells, cultured under standard conditions were transiently transfected with the apoaequorin ORF [21] and a receptor ORF construct, and expression induced using CuSO4. Transfected S2 cells were harvested and incubated with 2.5 µM coelenterazine in the dark at RT for 1–2 h as previously described. 25,000 cells were then placed in 135 µl Schneider's medium supplemented with 10% FCS in a well of a white polystyrene 96-well plate (Berthold Technologies). Bioluminescence recordings were carried out using a Mithras LB940 automated 96-well plate reader (Berthold Technologies) and MikroWin software. 15 µl of each of different peptides were applied to final concentrations as required. At the end of each recording samples were disrupted by the addition of 100 µl lysis solution, and the [Ca^2+] concentrations calculated as previously described. For assays in Ca^2+-free medium, transfected cells were collected and pelleted after incubation with coelenterazine. Cell pellets were re-suspended in Ca^2+-free Schneider's medium (Invitrogen Inc.) without FCS and collected by centrifugation. The washing and pelleting procedure was repeated once more. […]

T1 sequence (Q9GZQ4 whole entry): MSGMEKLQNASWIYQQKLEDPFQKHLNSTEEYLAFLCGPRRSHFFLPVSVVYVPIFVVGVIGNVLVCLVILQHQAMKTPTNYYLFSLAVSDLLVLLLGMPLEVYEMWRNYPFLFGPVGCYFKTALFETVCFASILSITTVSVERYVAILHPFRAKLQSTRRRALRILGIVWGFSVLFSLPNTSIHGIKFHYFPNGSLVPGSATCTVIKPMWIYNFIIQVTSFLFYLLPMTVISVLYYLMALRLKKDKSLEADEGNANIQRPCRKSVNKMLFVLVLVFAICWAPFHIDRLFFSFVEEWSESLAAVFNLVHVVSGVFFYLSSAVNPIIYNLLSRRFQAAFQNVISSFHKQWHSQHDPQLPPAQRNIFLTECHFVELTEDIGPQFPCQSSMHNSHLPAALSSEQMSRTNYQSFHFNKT

CC(C)C[C@H](NC(=O)[C@H](Cc1ccccc1)NC(=O)[C@H](Cc1ccc(O)cc1)NC(=O)CNC(=O)[C@H](CCCNC(=N)N)NC(=O)[C@H](CO)NC(=O)[C@H](CCC(N)=O)NC(=O)[C@H](CO)NC(=O)[C@H](C)NC(=O)[C@H](Cc1ccccc1)NC(=O)[C@@H]1CCCN1C(=O)[C@H](CO)NC(=O)[C@H](CCC(N)=O)NC(=O)[C@H](Cc1ccccc1)NC(=O)[C@H](CCC(=O)O)NC(=O)[C@H](CCC(=O)O)NC(=O)[C@H](CC(=O)O)NC(=O)[C@@H](NC(=O)[C@H](CCCNC(=N)N)NC(=O)[C@@H](N)Cc1ccccc1)C(C)C)C(=O)N[C@@H](Cc1ccccc1)C(=O)N[C@@H](CCCNC(=N)N)C(=O)N1CCC[C@H]1C(=O)N[C@@H](CCCNC(=N)N)C(=O)N[C@@H](CC(N)=O)C(N)=O [NMU-25, reference compound] (H-FRVDEEFQSPFASQSRGYFLFRPRN-NH2)
EC50: 0.91 nM
